Laboratory results reported in publication PMC9663686, “Proline, hydroxyproline, and pyrrolidone carboxylic acid derivatives as highly efficient but reversible transdermal permeation enhancers” (Scientific Reports, 2022).

Legend:
human skin [1] = test: Theophylline permeation through human skin in Franz diffusion cells with co-applied enhancer; format: in vitro ADME; conditions: 1% enhancer co-applied with 5% TH in 60% PG; for CDERMIS, theophylline concentration in dermis / CEPIDERMIS, theophylline concentration in epidermis: after 48 h permeation, mean ± SEM; for ER, enhancement ratio of theophylline flux (fold increase in flux over control): human skin in vitro
Procedure: The prepared enhancers were applied at 1% in 60% aqueous propylene glycol (PG) to human skin in vitro; 60% PG was used as a negative control. PG was selected for its synergy with amphiphilic enhancers. Each model drug was co-applied with the enhancer at infinite dose.
(§1) Donor samples for reversibility and infrared studies contained 1% enhancer in 60% PG. All samples were thoroughly mixed, incubated at 32 °C for 24 h, and, if needed, carefully resuspended before applying on the skin. The effects of the studied enhancers on the solubility of model drugs were assessed as described previously.
(§2) The permeation-enhancing potencies of the prepared compounds were evaluated on human skin in Franz diffusion cells. Human skin was slowly thawed, cut into 2 × 2 cm pieces, fixed in Teflon holders with 1-cm^2 circular permeation areas, and mounted into Franz cells epidermal side up. The acceptor compartment (15.9 ± 0.1 ml) was filled with phosphate-buffered saline at pH 7.4 with 0.005% gentamicin (PBS) and stirred at 32 °C throughout the experiment. The skin integrity was checked by electrical impedance (any skin sample with the impedance < 10 kΩ was excluded). Then, 100 µl of a donor sample (infinite dose) was applied to the skin and covered with a glass slide. Acceptor phase samples (300 µl) were collected at predetermined time intervals for 48 h, to reach steady-state and were replaced by the same volume of fresh PBS. […] The drug concentrations were measured by HPLC (see supplementary data).
(§3) The flux of the model drug through the skin Jss (µg/cm^2/h) was calculated from the linear region of this plot. The enhancement ratio (ER) was calculated as the ratio of flux with and without an enhancer.
(§4) After the permeation experiment, the cells were dismounted, the skin was carefully washed with PBS, and the permeation area of the skin (1 cm^2) was punched off. After heating the skin fragments to 80 °C for 1 min, the epidermis (E) was peeled off the dermis (D), individually weighed and extracted by 1 and 2 ml, respectively, of an extraction solvent (identical to the mobile phase for the drug HPLC analysis, see supplementary data) for 24 h. The drug concentration was measured by HPLC (see supplementary data).

human skin [2] = test: Diclofenac permeation through human skin in Franz diffusion cells with co-applied enhancer; format: in vitro ADME; conditions: for CDERMIS, diclofenac concentration in dermis / CEPIDERMIS, diclofenac concentration in epidermis: 1% enhancer co-applied with 3% DC in 60% PG, after 48 h permeation, mean ± SEM
Procedure: as §1, §2, §3, §4

rat skin = conditions: 5% concentration (154 mM), topical; cited from earlier work
[3] = Skin viability after topical enhancer application (TTC reduction test); conditions: human, freshly excised full thickness human skin, 1% in 60% PG for 24 or 48 h, decrease not significant, read-out: viability of treated skin relative to untreated skin
Procedure: Freshly excised full thickness human skin was incubated in Dulbecco’s modified Eagle’s medium (DMEM, Lonza, Verviers, Belgium) supplemented with 10% heat-inactivated fetal bovine serum (Merck, Darmstadt, Germany), and 1% penicillin/streptomycin + 1% amphotericin B solution (Lonza, Verviers, Belgium) at 37 °C in a humidified atmosphere of 5% CO2. Skin fragments were treated with 1% enhancer in 60% PG, 20 µl/cm^2, 60% PG alone or left untreated for 24 or 48 h. Then the skin was washed rinsed with distilled water and gently blotted dry. Skin viability was evaluated using the 2,3,5-triphenyltetrazolium chloride (TTC) reduction test[57]. Punch biopsies of 5 mm diameter were incubated in 1 ml of 1.5% TTC and 3% sodium succinate in phosphate buffered saline at pH 7.4 at 37 °C under nitrogen in the dark. After 1 h, the skin samples were dried and the dark red formazan derivative produced by the mitochondrial enzymes was extracted with 1 ml of 2-methoxyethanol for 12 h. Absorbance was measured at 490 nm using Tecan Infinite 200 M plate reader (Tecan, Grödig, Austria) and corrected using skin samples devitalized by boiling as a negative control. The viability of skin exposed to the different preparations was expressed as a percentage of untreated control skin.

[4] = 1% enhancer with 3% DC in 60% PG

Row | SMILES | CDERMIS, theophylline concentration in dermis (human skin [1]) | CEPIDERMIS, theophylline concentration in epidermis (human skin [1]) | ER, enhancement ratio of theophylline flux (fold increase in flux over control) (human skin [1]) | CDERMIS, diclofenac concentration in dermis (human skin [2]) | CEPIDERMIS, diclofenac concentration in epidermis (human skin [2]) | visible changes in rat skin after topical application (rat skin) | viability at 1 % [3] | fold increase of DC retention in dermis over control (human skin [2]; [4]) | fold increase of DC retention in epidermis over control (human skin [2]; [4])
1 | CCCCCCCCCCCCOC(=O)C1CCCN1C(C)=O (centres unmarked) [Pro2, N-acetyl proline dodecyl ester] | 0.37 ± 0.02 µg/mg | 1.04 ± 0.11 µg/mg | 28 | 1.08 ± 0.09 µg/mg | 7.16 ± 0.79 µg/mg | did not cause any visible changes in rat skin |  |  | 
2 | CCCCCCCCCCCCOC(=O)C1CCCN1C(=O)CC (centres unmarked) [Pro3] | 0.32 ± 0.03 µg/mg | 1.11 ± 0.17 µg/mg | 31 | 1.54 ± 0.28 µg/mg | 11.18 ± 2.39 µg/mg |  | ≥ 92% |  | 
3 | CCCCCCCCCCCCOC(=O)C1CCCN1C(=O)CCC (centres unmarked) [Pro4] | 0.25 ± 0.01 µg/mg | 0.83 ± 0.08 µg/mg | 25 | 1.71 ± 0.31 µg/mg | 12.70 ± 2.71 µg/mg |  | ≥ 92% | fourfold | 3 fold
